Test results as given in patent US8716558B2, “Method of altering glycosylation of proteins in response to nojirimycin glucuronide in a plant cell expressing glucuronidase” (Marker Gene Technologies, Inc., priority 1999, dated 2014).

How the values were obtained:
[1] = system: D5 mouse melanoma tumors lipofected with a lacZ vector; experiment: In vivo growth of subcutaneous tumors from lacZ-lipofected cells; design: species or system C57/J(B6) mice; settings: 25 and 50 mg/Kg/Day intraperitoneally for 4 days from Day 3
Procedure: (§1) The 5FUR-galactoside conjugate described in Example 16, 5-fluorouridine-5′-O-β-D-galactopyranoside (M0174) was tested to determine the reduction of tumor growth of subcutaneously implanted D5 mouse melanoma tumors that had been lipofected with a vector containing the lacZ marker gene in mice. […] C57/J(B6) mice (22-36 g each) were injected in the right flank with 50 μL HBBS containing 1×10^6D5 tumor cell that were either untreated or lipofected with a vector containing the lacZ gene. M0174 was administered intraperitoneally starting at Day 3, for 4 days, to mice that had received lipofected tumor cells in doses of either 25 or 50 mg/kg/day, and to mice that had received untreated tumor cells in doses of 100 mg/kg/day. Measurement of tumor area in mm^2 began on Day 8 and ended on Day 26. […] NO EFFECT (i.e. no significant drug release) for pro-drug on non-lipofected cells was found (even at 100 mg/Kg/Day), indicating once again a lack of biological activity for the pro-drug, M0174.

D5 murine melanoma cells = experiment: MTT cell proliferation assay, non-lipofected tumor cells; type: cell-based
Procedure: (§2) For the MTT assay, cells are incubated with the MTT reagent, which is turned over by live cells to a purple MTT formazan product. Turnover is directly proportional to the number of live cells, enabling a proportional measurement of the number of cells to be achieved by measuring the production of MTT formazan. Media is removed from cells in the twelve well plate and replaced with DME containing 10 mM Hepes. 0.25 mL of a 2 mg/ml solution of MTT is then added to each well, and plates are covered and wrapped with aluminum foil and incubated at 37° C. for three hours. Plates are then emptied of the media MTT solution, and 1 mL of DMSO and 125 μL of Sorensens glycine buffer are added to each well to solubilize the MTT formazan product. Absorbence of each sample is measured against a DMSO blank at 570 nm.
(§3) Lipofection of D5 murine melanoma cells with the pCMVβ plasmid containing the lacZ gene provided a lacZ positive set of cells with transient but high levels of ? -galactosidase expression. A 60 mm plate of D5 cells, 80% confluent, was lipofected for 5 hours with 3.6 μg/ml pCMVB (a plasmid containing the lacZ gene)(CLONTECH) using 36 μL lipofectAmine reagent (Life Technologies, Gibco BRL). After lipofection, fresh media was added to the cells to dilute the lipofection reagent, and cells were grown for 2 days. A cover slip of the lipofected D5 cells was stained with X-gal and transfection efficiency was estimated at 70%. D5 and lipofected D5 cells were plated in 12 well plates at a density of 12×10^3 cells per well and incubated 6 hours. The 5FUR-galactoside conjugate described in Example 16, 5-fluorouridine-5′-O-β-D-galactopyranoside (M0174) was added to cells at various concentrations and cells were incubated 6 hours, after which the media was changed. Cells were allowed to grow another 36 hours, then the MTT assay was performed to estimate the number of living cells per well. Cell numbers were expressed as a percent of the number of cells in the control well. All assay points were performed in duplicate and averaged. […]

[2] = system: D5 mouse melanoma tumors (untreated cells); experiment: In vivo growth of subcutaneous tumors from non-lipofected cells; design: species or system C57/J(B6) mice; settings: 100 mg/Kg/Day intraperitoneally for 4 days from Day 3
Procedure: as §1

[3] = system: E. coli strains CSH23/S90C and CSH22/S90C; experiment: Bacterial growth assay under non-inducing conditions (loss of activity upon conjugation); type: cell-based; settings: 10 μg/ml 5FUR or 16.2 μg/ml M0174, M9 media, FIG. 1
Procedure: E. coli strains CSH23/S90C and CSH22/S90C were tested with 5-fluorouridine (5FUR) and the 5FUR-galactoside conjugate described in Example 16, 5-fluorouridine-5′-O-β-D-galactopyranoside, (M0174) to confirm loss of biological activity upon conjugation. CSH23 is a strain inducible for lacZ expression; CSH22 is a deletion mutant for lacZ and is therefore uninducible. Other strains with these properties are commercially available. When grown under non-inducing conditions, neither strain will produce β-galactosidase. Each strain was innoculated into 10 mL M9 minimal media and grown in non-inducing conditions, shaking at 37° C. overnight. Overnight cultures (500 μL) were transferred into […] fresh M9 media and grown to logarithmic phase for 4 hours prior to beginning the experiments. 1 mL of this culture was transferred to 10 ml fresh M9 media containing 10 μg/ml 5FUR, 16.2 μg/ml M0174, or no additions, and returned to the incubator. Growth curves were generated by removing aliquots of each culture at 30 minute intervals and reading absorbance at 420 nm. All final data was run in duplicate trials.

[4] = system: D5 murine melanoma cells lipofected with pCMVβ (lacZ); experiment: MTT cell proliferation assay, lacZ-lipofected tumor cells; type: cell-based
Procedure: as §2, §3

[5] = system: E. coli CSH36/S90C and CSH22/S90C co-culture; experiment: Co-culture bystander effect, colony growth on X-gal plates; type: cell-based; settings: 10 μg/ml 5FUR or 16.2 μg/ml M0174, plated on X-gal
Procedure: E. coli strains CSH36/S90C and CSH22/S90C were grown in co-culture and tested with the 5FUR-galactoside conjugate described in Example 16, 5-fluorouridine-5′-O-β-D-galactopyranoside, (M0174) to show translocation of drug released in β-Gal expressing cells to other cells in the culture. CSH36 is a constitutive mutant for lacZ and therefore produces β-galactosidase regardless of induction conditions. CSH22 is a deletion mutant for lacZ and is therefore uninducible. Each strain individually and both strains together were innoculated into 10 mL aliquots of M9 minimal media and grown shaking at 37° C. overnight. Overnight cultures (500 μL) were transferred into 10 mL fresh M9 media and grown to logarithmic phase for 4 hours prior to beginning the experiments. 1 mL of this culture was transferred to 10 ml fresh M9 media containing 10 μg/ml 5-fluorouridine (5FUR), 16.2 μg/ml M0174, or no additions, and returned to the incubator. Growth curves were generated by removing aliquots of each culture at 30 minute intervals and reading absorbance at 420 nm. Remaining portions of these cultures were allowed to grow overnight, and final absorbance readings were taken. […] Plates were incubated at 37° C. for 48 hours, then evaluated for growth of white (indicating lacZ −, CSH22 cells) and blue (indicating lacZ+, CSH36 cells) colonies.

[6] = system: D5 tumor cells lipofected with a lacZ containing vector; experiment: In vivo pulmonary tumor growth, lipofected tumor cells; design: species or system C57/J(B6) mice
Procedure: To test the efficacy of pro-drug delivery in vivo for initiation and mediation of a host cellular immune response to genetically modified tumor, C57/J(B6) mice (22-36 g each) are injected intravenous with 50 μL HBBS containing 1×10^6 D5 tumor cells that are either untreated, lipofected with a vector containing the lacZ gene, lipofected with a vector containing both the lacZ and the H-2K allogeneic major histocompatability complex (MHC) class I gene (Wahl, et al, 1995), or lipofected with a vector containing the H-2K gene alone. After 2 days, accumulation of the tumor cells in the lung tissue is expected. Two animals are retained as controls, and necropsy examination and tumor staining of the lipofected animals is performed at the end of the trial, to confirm pulmonary tumor growth.
The doxorubicin-galactoside pro-drug of Example 19 is administered intraperitoneally starting at Day 3, for 20 days, to mice that received lipofected tumor cells in doses of either 5, 10 or 25 mg/kg/day, and to mice that received untreated tumor cells in doses of 50 mg/kg/day. Measurement of tumor growth is determined by necropsy examination of lung tissue and staining at day 25.

[7] = system: E. coli CSH36 (constitutive mutant for lacZ); experiment: Bacterial growth with ONPG; type: cell-based; settings: CSH36, no IPTG, 0.3 mg/ml ONPG
Procedure: (§4) E. coli strains CSH36 and W3110 available from the ATCC, Manassas, Va. were tested with orthonitrophenyl β-D-galactopyranoside (ONPG), according to the procedure of Marsh, 1994, to confirm release of compound upon induction of β-galactosidase production. W3110 is a wild-type E. coli strain inducible for lacZ expression; CSH36 is a constitutive mutant for lacZ and therefore produces β-galactosidase regardless of induction conditions. Each strain was innoculated into 10 mL M9 minimal media and grown in non-inducing conditions, shaking at 37° C. overnight. W3110 was also innoculated into 10 mL M9 media containing 0.3 mM iso-propyl thiogalactoside (IPTG) (W3110i) to induce β-galactosidase production. Overnight cultures (500 μL) were transferred into 10 mL fresh M9 media (+/−IPTG) and grown to logarithmic phase for 4 hours prior to beginning the experiments. 1 mL of this culture was transferred to 10 ml fresh M9 media (+/−IPTG) containing 0.3 mg/ml ONPG or no additions, and returned to the incubator. Growth curves were generated by removing aliquots of each culture at 30 minute intervals and reading absorbance at 420 nm. All final data was run in duplicate trials (A and B). […] ONP is also toxic to the bacteria, and therefore growth was retarded in those cultures producing β-galactosidase and turning over ONPG to ONP (see below and FIG. 2).

[8] = system: E. coli W3110 (inducible for lacZ); experiment: Bacterial growth with ONPG with or without IPTG induction; type: cell-based; settings: 0.3 mg/ml ONPG
Procedure: as §4

[9] = system: E. coli CSH36/S90C and CSH22/S90C co-culture; experiment: Co-culture selection, colony growth on X-gal plates; type: cell-based; settings: 30 μg/ml chloramphenicol or 42 μg/ml M0165, plated on X-gal
Procedure: E. coli strains CSH36/S90C and CSH22/S90C were grown in co-culture and tested with the chloramphenicol galactoside pro-drug (M0165) described in Example 15, to show lack of translocation of drug released in β-galactosidase expressing cells to other cells in the culture, and therefore selection for the lacZ-cells. CSH36 is a constitutive mutant for lacZ and therefore produces β-galactosidase regardless of induction conditions. CSH22 is a deletion mutant for lacZ and is therefore uninducible. Each strain individually and both strains together were innoculated into 10 mL aliquots of M9 minimal media and grown shaking at 37° C. overnight. Overnight cultures (500 μL) were transferred into 10 mL fresh M9 media and grown to logarithmic phase for 4 hours prior to beginning the experiments. 1 mL of this culture was transferred to 10 ml fresh M9 media containing 30 μg/ml chloramphenicol, 42 μg/ml M0165, or no additions, and returned to the incubator. Growth curves were generated by removing aliquots of each culture at 30 minute intervals and reading absorbance at 420 nm. Remaining portions of the cultures were allowed to grow overnight, and final absorbance readings were taken. […] Plates were incubated at 37° C. for 48 hours, then evaluated for growth of white (indicating lacZ −, CSH22 cells) and blue (indicating lacZ +, CSH 36 cells) colonies.

Q: What does the source list for `O=c1[nH]c(=O)n([C@@H]2O[C@H](CO[C@@H]3O[C@H](CO)[C@H](O)[C@H](O)[C@H]3O)[C@@H](O)[C@H]2O)cc1F` [Example M0174, 5-Fluorouridine-5′-O-β-D-Galactopyranoside]?
A: tumor growth (tumor area in mm^2, Day 8 to Day 26) [1]: slight delay in tumor growth; activity at 0.3 µg/mL (D5 murine melanoma cells; Mus musculus, 0.3 ug/ml, 6 hours exposure, MTT after another 36 hours, read-out: D5 % of control growth): 110%; activity at 5 µg/mL (D5 murine melanoma cells; Mus musculus, 5 ug/ml, 6 hours exposure, MTT after another 36 hours, read-out: D5 % of control growth): 87.9%; effect on cell growth (D5 murine melanoma cells; non-lipofected cells, even at high dosage values): unaffected; tumor growth (tumor area in mm^2, Day 8 to Day 26) [2]: NO EFFECT; effect on growth (growth curves, absorbance at 420 nm) [3]: very little effect; activity at 0.3 µg/mL ([4]; Mus musculus, 0.3 ug/ml, 6 hours exposure, MTT after another 36 hours, read-out: D5 lipofected, % of control growth): 48%; activity at 5 µg/mL ([4]; Mus musculus, 5 ug/ml, 6 hours exposure, MTT after another 36 hours, read-out: D5 lipofected, % of control growth): 22%; effect on cell growth ([4]; lipofected D5 cells): growth inhibited; colony growth after overnight co-culture [5]: no growth of either cell type

Q: For `COc1cccc2c1C(=O)c1c(O)c3c(c(OC4OC(CO)C(O)C(O)C4O)c1C2=O)C[C@@](OC1OC(CO)C(O)C(O)C1O)(C(C)=O)C[C@@H]3OC1CC(N)C(OC2OC(CO)C(O)C(O)C2O)CO1` (stereo partly shown) [Example 19], which “tumor growth in lung tissue (necropsy and staining at day 25)” value ([6]; 5, 10 or 25 mg/kg/day intraperitoneally for 20 days from Day 3) is on record?
A: Tumor regression

Q: What about the tumor burden ([6]; animals receiving both lacZ and H-2K gene) of the same compound?
A: lower tumor burden

Q: Which “effect on growth (growth curves, absorbance at 420 nm)” value [3] does the source give for `O=c1[nH]c(=O)n([C@@H]2O[C@H](CO)[C@@H](O)[C@H]2O)cc1F` [Example 5FUR, 5-fluorouridine, reference compound] here?
A: significant decrease in growth

Q: And the “colony growth after overnight co-culture” value [5]?
A: no growth of either cell type

Q: For `O=[N+]([O-])c1ccccc1O[C@@H]1O[C@H](CO)[C@H](O)[C@H](O)[C@H]1O` [ONPG, orthonitrophenyl β-D-galactopyranoside], which “Doubling Time (min)” value [7] is on record?
A: *not measurable

Q: What about the “time after start of experiments at which growth halted” value [7] of the same compound?
A: *growth halted approximately 2 hours after start of experiments

Q: What about the “Doubling Time” value ([8]; W3110, 0.3 mM IPTG) of the same compound?
A: 215 min

Q: What about the “Doubling Time” value ([8]; W3110, no IPTG) of the same compound?
A: 92 min

Q: With `O=C(NC(COC1OC(CO)C(O)C(O)C1O)C(O)c1ccc([N+](=O)[O-])cc1)C(Cl)Cl` [Example M0165, D(−)-threo-2,2-dichloro-N-[β-hydroxy-α-(O-β-D-galactopyranosylmethyl)-β-(4-nitrophenyl)ethyl]acetamide] as the compound, how does the “colony growth after overnight co-culture” value [9] read?
A: growth of only CSH22 cells
